{
  "source": "patent US20200407717A1",
  "about": "“METHODS OF MODULATING ANTISENSE ACTIVITY” (Ionis Pharmaceuticals, Inc., priority 2018, published 2020)",
  "key": {"Purified recombinant EGF [1]": {"target": "T1, Purified recombinant EGF (Homo sapiens, UniProt P01133)", "T1 construct": "purchased ThermoFisher PHG0311L", "T1 sequence (P01133 971-1023 limits assumed)": "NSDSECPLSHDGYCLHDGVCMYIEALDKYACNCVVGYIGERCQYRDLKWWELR", "assay": "Membrane binding assay, EGF", "description": "(§1) A membrane binding assay was performed to test the binding affinities of modified oligonucleotides to EGF and EGFR. Purified recombinant EGF (PHG0311L, ThermoFisher) or EGFR protein (PV3872, ThermoFisher) were incubated with FITC-labeled phosphorothioate oligonucleotide, compound no. 256903 or FITC-labeled phosphate oligonucleotide, PO-ASO, in binding buffer (20 mM Tris-HCl, pH 7.5, 150 mM NaCl, 1 mM DTT, 10% glycerol) for 1 hr at 37° C. Each reaction contained purified EGF at 3 nM to 3 μM or recombinant EGFR at 5 nM to 150 nM. Samples were loaded onto a hyband ECL nitrocellulose membrane (GE Healthcare) and soaked in wash buffer (20 mM Tris-HcCl, pH 7.5, 250 mM NaCl). Protein-bound ASOs were transferred to the membrane by applying a vaccum in a 96-well Bio-Rad Bio-Dot apparatus. After washing, membranes were air-dried and scanned using a phoshoimager (GE Healthcare). Kds were calculated for compound no. 256903 using Prism. The results below represent an average of three replicate experiments. […] In contrast, compound no. 256903 bound to both EGF and EGFR, with a higher affinity for EGFR than for EGF."}, "Purified recombinant EGF [2]": {"target": "T1, Purified recombinant EGF", "assay": "Membrane binding assay, EGF", "conditions": "[EGF] 2.5 nM"}, "EGFR [3]": {"target": "T2, EGFR (Homo sapiens, UniProt P00533)", "assay": "Membrane binding assay, EGFR", "design": "purchased ThermoFisher PV3872", "description": "as §1"}, "EGFR [4]": {"target": "T2, EGFR", "assay": "Membrane binding assay, EGFR", "design": "purchased ThermoFisher PV3872", "conditions": "EGFR 2.3 nM (head prints [EGF])"}},
  "note": "In the oligonucleotide strings, read from the 5' end, every base follows the letter of its sugar. An asterisk marks phosphorothioate; unmarked linkages are phosphodiester. Other units and linkages are bracketed, terminal groups are in braces. A string of capitals states the bases alone. e = 2'-O-(2-methoxyethyl) (MOE); {FITC} = fluorescein label; [5mC] = 5-methylcytosine; d = 2'-deoxy (DNA)",
  "data": [
    {"substance": "FITC-^mCesTesGes^mCesTesAdsGds^mCds^mCdsTds^mCdsTdsGdsGdsAdsTesTesTesGesAe (antisense {FITC}-e[5mC]*eT*eG*e[5mC]*eT*dA*dG*d[5mC]*d[5mC]*dT*d[5mC]*dT*dG*dG*dA*eT*eT*eT*eG*eA) [compound 256903]", "values": [
      {"measurement": "interaction with EGF", "setting": "Purified recombinant EGF [1]; EGF 3 nM to 3 μM", "value": "bound"},
      {"measurement": "Relative intensity (%)", "setting": "Purified recombinant EGF [1]; [EGF] 5 nM", "value": 10.2, "unit": "%"},
      {"measurement": "Relative intensity (%)", "setting": "Purified recombinant EGF [1]; [EGF] 10 nM", "value": 12.0, "unit": "%"},
      {"measurement": "Relative intensity (%)", "setting": "Purified recombinant EGF [1]; [EGF] 20.9 nM", "value": 12.8, "unit": "%"},
      {"measurement": "Relative intensity (%)", "setting": "Purified recombinant EGF [1]; [EGF] 41.9 nM", "value": 13.7, "unit": "%"},
      {"measurement": "Relative intensity (%)", "setting": "Purified recombinant EGF [1]; [EGF] 93.8 nM", "value": 15.7, "unit": "%"},
      {"measurement": "Relative intensity (%)", "setting": "Purified recombinant EGF [1]; [EGF] 187.5 nM", "value": 17.0, "unit": "%"},
      {"measurement": "Relative intensity (%)", "setting": "Purified recombinant EGF [1]; [EGF] 375 nM", "value": 22.3, "unit": "%"},
      {"measurement": "Relative intensity (%)", "setting": "Purified recombinant EGF [1]; [EGF] 750 nM", "value": 72.3, "unit": "%"},
      {"measurement": "Relative intensity (%)", "setting": "Purified recombinant EGF [1]; [EGF] 1500 nM", "value": 95.2, "unit": "%"},
      {"measurement": "Relative intensity (%)", "setting": "Purified recombinant EGF [1]; [EGF] 3000 nM", "value": 97.3, "unit": "%"},
      {"measurement": "Kd", "setting": "Purified recombinant EGF [1]; binding affinity for EGF, average of three replicate experiments", "value": "570 ± 170", "unit": "nM"},
      {"measurement": "Relative intensity (%)", "setting": "Purified recombinant EGF [2]", "value": 8.8, "unit": "%"},
      {"measurement": "Relative intensity (%)", "setting": "EGFR [3]; EGFR 4.7 nM (head prints [EGF])", "value": 9.0, "unit": "%"},
      {"measurement": "interaction with EGFR", "setting": "EGFR [3]; EGFR 5 nM to 150 nM", "value": "bound"},
      {"measurement": "Relative intensity (%)", "setting": "EGFR [3]; EGFR 9.4 nM (head prints [EGF])", "value": 9.0, "unit": "%"},
      {"measurement": "Relative intensity (%)", "setting": "EGFR [3]; EGFR 18.8 nM (head prints [EGF])", "value": 10.3, "unit": "%"},
      {"measurement": "Relative intensity (%)", "setting": "EGFR [3]; EGFR 37.5 nM (head prints [EGF])", "value": 40.5, "unit": "%"},
      {"measurement": "Relative intensity (%)", "setting": "EGFR [3]; EGFR 75 nM (head prints [EGF])", "value": 80.0, "unit": "%"},
      {"measurement": "Relative intensity (%)", "setting": "EGFR [3]; EGFR 150 nM (head prints [EGF])", "value": 102.7, "unit": "%"},
      {"measurement": "Kd", "setting": "EGFR [3]; binding affinity for EGFR, average of three replicate experiments", "value": "51.5 ± 9.3", "unit": "nM"},
      {"measurement": "Relative intensity (%)", "setting": "EGFR [4]", "value": 7.0, "unit": "%"}
    ]}
  ]
}
